Reference: ChEMBL document CHEMBL5390217, “Structure Confirmation of Dechlorotrichotoxin A through Stereoselective Total Synthesis” (2023)
Activity calls are given as the source filed them. The rule behind the calls is not given here.

Key:
[1] = tested on: U-937; assay: Antiproliferative activity against human U-937 cells assessed as inhibition of cell growth at 30 uM incubated for 48 hrs in presence of 10% FBS by CCK-8 assay relative to control; type: functional; parameters: scale not given: the % may be the effect or the level left
[2] = tested on: MCF7; assay: Antiproliferative activity against human MCF7 cells assessed as inhibition of cell growth at 30 uM incubated for 48 hrs in presence of 10% FBS by CCK-8 assay relative to control; type: functional; parameters: scale not given: the % may be the effect or the level left
[3] = tested on: MCF7; assay: Antiproliferative activity against human MCF7 cells assessed as inhibition of cell growth at 30 uM incubated for 48 hrs in presence of 10% FBS by CCK-8 assay; type: functional, cell-based

Row | Compound | Activity [1] [%] | Activity [2] [%] | Activity [3]
1 | C=CC[C@@H](O)/C(C)=C/[C@@H](C)CCC(=C)Cc1ccccc1 | 44 | 21 | –
2 | C=CC[C@@H](O)/C(C)=C/[C@@H](C)CCC(=CCl)Cc1ccccc1 (mixture of isomers) | 20 | – | inactive
